From ChEMBL document CHEMBL5465560, “Selectivity Literature for EUbOPEN Chemogenomic Library” (2024)

Assays:
[1] = target: T1, Serine/threonine-protein kinase D3 (Homo sapiens) (UniProt O94806); experiment: Selectivity interaction (KinomeScan (DiscoverX)) EUB0001079a PRKD3; conditions: at 1 µM
T1 sequence (whole entry): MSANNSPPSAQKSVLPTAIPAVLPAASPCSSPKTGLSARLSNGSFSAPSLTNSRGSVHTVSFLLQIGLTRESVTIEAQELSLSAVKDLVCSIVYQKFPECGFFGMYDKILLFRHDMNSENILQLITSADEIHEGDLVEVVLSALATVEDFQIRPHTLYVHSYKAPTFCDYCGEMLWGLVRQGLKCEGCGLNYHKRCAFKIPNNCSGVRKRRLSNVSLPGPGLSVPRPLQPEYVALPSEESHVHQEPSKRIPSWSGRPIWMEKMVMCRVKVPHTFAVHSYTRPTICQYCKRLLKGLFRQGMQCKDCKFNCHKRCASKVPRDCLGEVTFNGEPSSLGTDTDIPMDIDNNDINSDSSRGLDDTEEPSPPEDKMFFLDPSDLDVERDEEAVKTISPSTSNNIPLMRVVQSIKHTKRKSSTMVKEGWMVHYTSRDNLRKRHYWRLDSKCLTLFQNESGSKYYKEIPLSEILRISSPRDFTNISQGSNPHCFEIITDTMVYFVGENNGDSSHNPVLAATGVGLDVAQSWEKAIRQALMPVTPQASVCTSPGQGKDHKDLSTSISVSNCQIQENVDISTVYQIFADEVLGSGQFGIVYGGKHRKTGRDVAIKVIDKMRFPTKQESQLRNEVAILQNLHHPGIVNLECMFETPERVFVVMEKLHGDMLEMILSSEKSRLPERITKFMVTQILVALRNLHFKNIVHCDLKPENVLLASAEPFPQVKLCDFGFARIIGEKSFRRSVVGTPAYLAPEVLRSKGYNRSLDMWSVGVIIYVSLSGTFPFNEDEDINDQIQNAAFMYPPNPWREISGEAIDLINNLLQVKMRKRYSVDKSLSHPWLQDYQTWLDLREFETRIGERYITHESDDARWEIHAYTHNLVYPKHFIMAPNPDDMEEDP

[2] = target: Mitogen-activated protein kinase 7 (Homo sapiens) (UniProt Q13164); experiment: Selectivity interaction (KinomeScan (DiscoverX)) EUB0000699a MAPK7; conditions: at 10 µM
Chain of Mitogen-activated protein kinase 7 (Homo sapiens) (Q13164 2-816 limits assumed): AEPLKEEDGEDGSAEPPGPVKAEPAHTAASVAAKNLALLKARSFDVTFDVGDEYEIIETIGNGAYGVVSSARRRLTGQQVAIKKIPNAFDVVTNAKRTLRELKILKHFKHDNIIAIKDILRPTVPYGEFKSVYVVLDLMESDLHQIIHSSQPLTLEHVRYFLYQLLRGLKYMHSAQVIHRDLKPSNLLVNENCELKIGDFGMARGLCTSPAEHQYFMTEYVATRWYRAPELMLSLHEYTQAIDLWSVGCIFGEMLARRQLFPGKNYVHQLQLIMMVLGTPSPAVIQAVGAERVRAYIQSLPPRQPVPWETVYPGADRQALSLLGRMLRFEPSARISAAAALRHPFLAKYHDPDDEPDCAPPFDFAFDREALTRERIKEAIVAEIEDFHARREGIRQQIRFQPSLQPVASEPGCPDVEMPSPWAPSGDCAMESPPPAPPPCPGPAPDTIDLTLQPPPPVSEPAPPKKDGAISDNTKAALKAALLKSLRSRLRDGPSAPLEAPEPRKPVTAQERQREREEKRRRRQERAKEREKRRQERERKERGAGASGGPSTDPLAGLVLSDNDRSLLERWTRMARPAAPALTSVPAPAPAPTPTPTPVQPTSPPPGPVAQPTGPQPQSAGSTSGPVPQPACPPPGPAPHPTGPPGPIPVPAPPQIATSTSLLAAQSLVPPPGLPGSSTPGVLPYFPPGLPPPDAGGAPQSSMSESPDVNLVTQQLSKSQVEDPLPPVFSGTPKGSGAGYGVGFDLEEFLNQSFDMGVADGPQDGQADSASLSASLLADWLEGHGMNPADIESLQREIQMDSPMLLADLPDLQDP

[3] = target: T2, Serine/threonine-protein kinase Nek5 (Homo sapiens) (UniProt Q6P3R8); conditions: at 10 µM
T2 sequence (whole entry): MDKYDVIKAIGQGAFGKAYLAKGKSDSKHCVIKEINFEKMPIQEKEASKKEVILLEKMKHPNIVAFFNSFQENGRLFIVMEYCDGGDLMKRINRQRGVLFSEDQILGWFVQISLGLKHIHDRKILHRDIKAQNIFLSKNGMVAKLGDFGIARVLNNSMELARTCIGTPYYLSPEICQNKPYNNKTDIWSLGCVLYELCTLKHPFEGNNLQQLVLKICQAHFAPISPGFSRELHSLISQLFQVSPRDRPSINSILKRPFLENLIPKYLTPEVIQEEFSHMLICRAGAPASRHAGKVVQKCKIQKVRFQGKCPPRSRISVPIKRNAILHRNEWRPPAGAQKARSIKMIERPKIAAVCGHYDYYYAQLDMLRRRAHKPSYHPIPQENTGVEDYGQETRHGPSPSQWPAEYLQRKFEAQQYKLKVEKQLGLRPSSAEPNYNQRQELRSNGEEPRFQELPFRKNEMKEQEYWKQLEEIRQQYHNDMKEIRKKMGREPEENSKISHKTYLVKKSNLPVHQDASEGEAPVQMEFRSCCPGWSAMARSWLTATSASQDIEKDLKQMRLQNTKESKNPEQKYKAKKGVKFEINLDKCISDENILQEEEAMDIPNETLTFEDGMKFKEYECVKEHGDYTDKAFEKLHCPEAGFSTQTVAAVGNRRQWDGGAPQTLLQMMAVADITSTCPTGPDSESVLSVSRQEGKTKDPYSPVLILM

[4] = target: T3, Myosin-IIIb (Homo sapiens) (UniProt Q8WXR4); experiment: Selectivity interaction (KinomeScan (DiscoverX)) EUB0000695a MYO3B; conditions: at 100 nM
T3 sequence (whole entry): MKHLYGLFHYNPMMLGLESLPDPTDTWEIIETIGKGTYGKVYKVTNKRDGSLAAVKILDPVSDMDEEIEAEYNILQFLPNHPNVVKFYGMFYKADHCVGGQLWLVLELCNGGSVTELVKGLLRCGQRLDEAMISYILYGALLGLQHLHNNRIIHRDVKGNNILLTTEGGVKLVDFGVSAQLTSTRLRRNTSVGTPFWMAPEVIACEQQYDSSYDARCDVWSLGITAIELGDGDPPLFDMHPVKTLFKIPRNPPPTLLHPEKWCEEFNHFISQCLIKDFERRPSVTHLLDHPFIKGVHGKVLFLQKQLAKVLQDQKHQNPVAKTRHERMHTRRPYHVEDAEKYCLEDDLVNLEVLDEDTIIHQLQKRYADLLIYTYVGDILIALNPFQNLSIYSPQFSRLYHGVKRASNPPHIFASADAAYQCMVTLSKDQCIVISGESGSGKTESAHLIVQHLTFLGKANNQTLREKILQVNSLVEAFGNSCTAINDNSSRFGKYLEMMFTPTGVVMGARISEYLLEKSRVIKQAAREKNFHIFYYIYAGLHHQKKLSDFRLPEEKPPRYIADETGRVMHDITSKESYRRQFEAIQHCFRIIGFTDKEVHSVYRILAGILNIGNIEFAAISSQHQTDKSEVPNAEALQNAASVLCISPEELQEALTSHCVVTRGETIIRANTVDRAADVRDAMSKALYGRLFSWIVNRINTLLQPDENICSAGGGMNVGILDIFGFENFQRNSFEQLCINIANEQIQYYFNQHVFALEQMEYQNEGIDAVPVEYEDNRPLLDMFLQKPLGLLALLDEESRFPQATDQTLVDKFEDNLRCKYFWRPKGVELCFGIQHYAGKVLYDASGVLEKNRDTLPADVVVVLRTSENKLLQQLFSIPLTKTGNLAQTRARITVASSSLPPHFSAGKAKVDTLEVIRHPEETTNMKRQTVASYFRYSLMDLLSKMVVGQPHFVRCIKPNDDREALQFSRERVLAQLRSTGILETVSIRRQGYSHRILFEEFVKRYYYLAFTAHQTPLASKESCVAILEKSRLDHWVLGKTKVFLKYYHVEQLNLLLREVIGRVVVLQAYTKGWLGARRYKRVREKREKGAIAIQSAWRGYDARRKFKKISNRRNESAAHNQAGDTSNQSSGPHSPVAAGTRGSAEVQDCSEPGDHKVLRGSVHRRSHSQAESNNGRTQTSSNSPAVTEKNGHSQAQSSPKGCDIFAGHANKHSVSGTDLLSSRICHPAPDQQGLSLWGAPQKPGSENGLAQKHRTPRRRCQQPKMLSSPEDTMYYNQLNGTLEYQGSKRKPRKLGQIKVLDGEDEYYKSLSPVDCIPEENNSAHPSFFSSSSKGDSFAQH

Nc1cnc(N2CCc3cc(S(=O)(=O)Nc4c(F)cc(Cl)cc4F)cc(N4CCCC4=O)c32)nc1 [TP-020n]
% of control [1]: 88%

CCN(CC)CCCCNc1ncc2cc(-c3cc(OC)cc(OC)c3)c(NC(=O)NC(C)(C)C)nc2n1
% of control [2]: 36%

Cc1cc([C@@H](C)Nc2ccccc2C(=O)O)c2nc(N3CCOCC3)cc(=O)n2c1 [AZD-6482]
% of control [3]: 100%

Cc1cc(F)c(C(=O)Nc2cccc(-c3nncn3C(C)C)n2)cc1-n1cnc(C2CC2)c1
% of control [4]: 80%
